Measured values: patent US4175081A, “5-Substituted thiadiazole ureas” (priority 1977, dated 1979)

What was measured:
Bean (BN) [1] = experiment: Post-emergence herbicide test; type: in vivo, Phaseolus vulgaris var. Black Valentine; settings: Phaseolus vulgaris, post-emergence, 336 h; 8 lb/acre; two weeks after treatment
Outline: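 Bean seedlings (Phaseolus vulgaris var. Black Valentine) were grown in potting soil in 3' pots until the primary leaves expanded. They were then sprayed under a hood with a removable belt and fixed nozzle, using 50 ml formulations. Afterward they were returned to the greenhouse and watered only by sub-irrigation. Percent control was judged visually two weeks after treatment.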

Barnyard grass (BG) [2] = experiment: Post-emergence herbicide test; type: in vivo; settings: Echinochloa crus-galli, 336 h, 8 lb/acre, two weeks after treatment
Outline: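 Greenhouse pot-grown barnyard grass seedlings sprayed post-emergence at 8 lbs active compound per acre (some at 4 lbs/acre) in 38 gallons per acre, then sub-irrigated. Injury or control rated visually two weeks after treatment.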

Crabgrass (CG) [3] = experiment: Pre-emergence herbicide test; type: in vivo, Digitaria sanquinalis; settings: Digitaria sanguinalis, pre-emergence, 336 h; 8 lb/acre; two weeks after treatment
Outline: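 Crabgrass (Digitaria sanquinalis) was surface seeded in 3' plastic pots of potting soil, covered with screened soil, and watered by sub-irrigation in greenhouse trays. Pots were seeded one day before spraying in a hood with a moving belt and fixed nozzle. Plants stayed in the greenhouse on sub-irrigation, and pre-emergence control was rated visually two weeks after treatment.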

Cotton (CT) [4] = experiment: Pre-emergence herbicide test; type: in vivo, Gossypium hirsutum var. DPL smooth leaf; settings: Gossypium hirsutum, 336 h, 8 lb/acre, two weeks after treatment
Outline: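 Visual injury/control ratings were taken at two weeks post-spray. Pots seeded a day earlier received compound pre-emergence at 8 lbs/acre, or 4 lbs/acre, in a 38 gallon/acre spray volume, and were then held in the greenhouse, watered only from below.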

Corn (CN) [5] = experiment: Pre-emergence herbicide test; type: in vivo; settings: Zea mays, 336 h, 8 lb/acre, two weeks after treatment
Outline: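 Visual injury/control ratings were made 2 weeks post-spray on corn pots seeded (4 seeds, seed-diameter depth) the day before treatment. Application was a belt-hood spray of 38 gal/acre delivering 8 lbs active per acre, with a 4 lbs/acre rate also formulated. Watering was by sub-irrigation throughout.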

Johnson grass (JG) [6] = experiment: Post-emergence herbicide test; type: in vivo, Sorgum helepense; settings: Sorghum halepense, 336 h, 8 lb/acre, two weeks after treatment
Outline: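 Visual injury or control scores taken 2 weeks after a post-emergence spray of pot-grown plants. Application was 8 lbs/acre (or 4 lbs/acre) in 38 gal/acre. Plants were held in the greenhouse with sub-irrigation only.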

Turnip (TP) [7] = experiment: Post-emergence herbicide test; type: in vivo, Brassica sp.; settings: Brassica rapa, post-emergence, 336 h; 8 lb/acre; two weeks after treatment
Outline: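 A greenhouse post-emergence herbicide test on turnip. Seeds were sown on the surface of potting soil in 3' plastic pots, lightly covered with screened soil and watered from below. Planting was timed so seedlings had 1 or 2 true leaves above the cotyledons at spraying, done in a hood with a fixed nozzle. Control or injury was scored by eye after two weeks.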

Bean (BN) [8] = experiment: Pre-emergence herbicide test; type: in vivo, Phaseolus vulgaris var. Black Valentine; settings: Phaseolus vulgaris, 336 h, 8 lb/acre, two weeks after treatment
Outline: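 Visual injury/control ratings were taken two weeks post-spray on sub-irrigated Phaseolus vulgaris var. Black Valentine. Pots were sown a day before treatment. Pre-emergence spray delivered 8 lbs actual compound per acre (or 4 lbs/acre) at 38 gallons per acre.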

Crabgrass (CG) [9] = experiment: Post-emergence herbicide test; type: in vivo, Digitaria sanquinalis; settings: Digitaria sanguinalis, post-emergence, 336 h; 8 lb/acre; two weeks after treatment
Outline: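 Crabgrass (Digitaria sanquinalis) was surface seeded individually in 3' plastic pots of potting soil, covered with screened soil, and watered by sub-irrigation in greenhouse trays. Planting was staggered so seedlings reached the target stage together. Post-emergence sprays were applied in a hood with a removable belt and fixed nozzle, and control was visually rated two weeks after treatment.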

Turnip (TP) [10] = experiment: Pre-emergence herbicide test; type: in vivo, Brassica sp.; settings: Brassica rapa, pre-emergence, 336 h; 8 lb/acre; two weeks after treatment
Outline: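 In this pre-emergence greenhouse test, turnip was seeded on the surface of potting soil in 3' plastic pots, lightly covered with screened soil, and watered from below. One day later the pots were sprayed in a belt-fed spray hood. Watering continued only by sub-irrigation, and percent control was visually scored two weeks after treatment.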

Cotton (CT) [11] = experiment: Post-emergence herbicide test; type: in vivo, Gossypium hirsutum var. DPL smooth leaf; settings: Gossypium hirsutum, post-emergence, 336 h; 8 lb/acre; two weeks after treatment
Outline: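 This greenhouse post-emergence test measured how well spray treatments controlled cotton. Seedlings of Gossypium hirsutum var. DPL smooth leaf, with expanded cotyledons and a first true leaf 1' in length, were sprayed with 50 ml formulations in a belt-fed spray hood. They were then returned to the greenhouse and watered only by sub-irrigation. Injury was scored visually as % control after two weeks.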

[12] = system: Yellow foxtail grass (YF); experiment: Post-emergence herbicide test; type: in vivo, Setaria glauca; settings: Setaria, 336 h, 8 lb/acre, two weeks after treatment
Description: Yellow foxtail grass (YF)--Setaria glauca
All crop and weed species were planted individually in 3' plastic pots containing potting soil. Four seeds each of corn, cotton, and snapbeans were seeded to a depth equal to the diameter of the seed. All other species were surface seeded and sprinkled with screened soil in an amount sufficient to cover the seed. Immediately after planting, all pots were watered by sub-irrigation in greenhouse trays. Pots for the pre-emergence phase were seeded one day before treatment.
Planting dates for the post-emergence phase were varied so that all seedlings would reach the desired stage of development simultaneously. The proper stage of seedling development for treatment in the post-emergence phase is as follows:
Compounds were tested at rates of application equivalent to 8 lbs. of actual compound per acre in a spray volume of 38 gallons per acre. Spray hood constants required to deliver the above volume are as follows:
Formulations for spray applications were prepared in 50 ml volumes with the following three components:
Formulations for the 4 lbs/acre rate were prepared by adjusting the amount of active ingredient accordingly.
Spray applications were made in a hood containing a removable belt and fixed spray nozzle. For passage through the spray hood, one pot of each specie (pre-emergence phase) was placed on the rear half of the flat. Treatments were removed to the greenhouse after spraying. Watering during the observation period was done only by sub-irrigation.
Two weeks after treatment, pre- and post-emergence injury or control was visually rated, and the results were as shown in the following tables. Pre-emergence data are provided in TABLE III and post-emergence data are provided in TABLE IV, for compounds having the formula illustrated in TABLE I. Correspondingly, pre-emergence and post-emergence data, respectively, are set forth in TABLES V AND VI, for compounds having the formula illustrated in TABLE II.

Johnson grass (JG) [13] = experiment: Pre-emergence herbicide test; type: in vivo, Sorgum helepense; settings: Sorghum halepense, 336 h, 8 lb/acre, two weeks after treatment
Outline: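 Visual injury or control rating two weeks post-treatment, after pre-emergence spray of 8 or 4 lbs active per acre (38 gal/acre) onto pots sown the previous day. Greenhouse watering by sub-irrigation only.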

Barnyard grass (BG) [14] = experiment: Pre-emergence herbicide test; type: in vivo; settings: Echinochloa crus-galli, 336 h, 8 lb/acre, two weeks after treatment
Outline: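 Greenhouse pre-emergence spray test: pots seeded one day before treatment received compound at rates of 8 or 4 lb/acre (38 gal/acre). Visual injury/control scores for Echinochloa crus-galli taken at two weeks, with watering by sub-irrigation only.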

Corn (CN) [15] = experiment: Post-emergence herbicide test; type: in vivo; settings: Zea mays, 336 h, 8 lb/acre, two weeks after treatment
Outline: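 Greenhouse seedlings grown in potting soil and sprayed post-emergence at 8 lbs compound/acre (formulations also made for 4 lbs/acre) in 38 gallons/acre spray volume. Watering by sub-irrigation only. Injury or control rated visually two weeks after treatment.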

Amaranth pigweed (PW) [16] = experiment: Post-emergence herbicide test; type: in vivo, Amaranthus retroflexus; settings: 336 h, 8 lb/acre, two weeks after treatment
Outline: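 Visual injury or control ratings were made two weeks after spraying, with greenhouse watering by sub-irrigation only. Treatment was post-emergence, when pigweed seedlings had 1 or 2 true leaves, at 8 lbs active compound per acre (4 lbs/acre formulations also made) in a 38 gallons-per-acre spray volume.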

Amaranth pigweed (PW) [17] = experiment: Pre-emergence herbicide test; type: in vivo, Amaranthus retroflexus; settings: 336 h, 8 lb/acre, two weeks after treatment
Outline: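 Visual injury or control ratings were made at two weeks on pre-emergence pots, sub-irrigated in the greenhouse. Seeds were sown a day before a hood spray delivering 8 lbs/acre (or 4 lbs/acre) of compound in 38 gallons per acre.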

| Compound | pest or weed control at 8966.8 g/ha (Bean (BN) [1]) [%] | pest or weed control at 8966.8 g/ha (Barnyard grass (BG) [2]) [%] | pest or weed control at 8966.8 g/ha (Crabgrass (CG) [3]) [%] | pest or weed control at 8966.8 g/ha (Cotton (CT) [4]) [%] | pest or weed control at 8966.8 g/ha (Corn (CN) [5]) [%] | pest or weed control at 8966.8 g/ha (Johnson grass (JG) [6]) [%] | pest or weed control at 8966.8 g/ha (Turnip (TP) [7]) [%] | pest or weed control at 8966.8 g/ha (Bean (BN) [8]) [%] | pest or weed control at 8966.8 g/ha (Crabgrass (CG) [9]) [%] | pest or weed control at 8966.8 g/ha (Turnip (TP) [10]) [%] | pest or weed control at 8966.8 g/ha (Cotton (CT) [11]) [%] | pest or weed control at 8966.8 g/ha [12] [%] | pest or weed control at 8966.8 g/ha (Johnson grass (JG) [13]) [%] | pest or weed control at 8966.8 g/ha (Barnyard grass (BG) [14]) [%] | pest or weed control at 8966.8 g/ha (Corn (CN) [15]) [%] | pest or weed control at 8966.8 g/ha (Amaranth pigweed (PW) [16]) [%] | pest or weed control at 8966.8 g/ha (Amaranth pigweed (PW) [17]) [%] |
| --- | --- | --- | --- | --- | --- | --- | --- | --- | --- | --- | --- | --- | --- | --- | --- | --- | --- |
| CNC(=O)Nc1nnc(-c2cccc(Cl)c2)s1 [Example 72] | 20 | 40 | 0 | 80 | 30 | 20 | 40 | 100 | 30 | 0 | 30 | 30 | 0 | 0 | 0 |  |  |
| CNC(=O)Nc1nnc(SCc2ccc(Cl)cc2)s1 [Example 87] | 100 | 20 | 10 | 50 | 10 | 10 | 60 | 100 | 20 | 10 | 70 |  | 20 | 20 | 10 | 40 | 70 |
